Experimental findings from patent US20140005163A1 (NOVARTIS AG, priority 2010, published 2014) are described below.

One assay concerns the target T1, PI3K alpha (Homo sapiens, UniProt P42336).
T1 construct: p85(iSH2) fusion partner (see partner chain) (N); His tag (C); made in house; host or cells: baculovirus; Tn5 (Trichoplusia ni) or TiniPro insect cells
Description: PI3K alpha kinase assay (Kinase-Glo luminescence). It is filed as biochemical. Summed up: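 IC50 is taken from a four-parameter logistic fit of 8-point dilutions, with Kinase-Glo luminescence reporting residual ATP. Reactions ran 60 min at room temperature in TRIS pH 7.5 buffer with MgCl2, NaCl, CHAPS and DTT. Final levels were 10 nM enzyme, 1 μM ATP and 10 μg/mL PI.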

A further assay concerns the target T2, PI3K delta (Homo sapiens, UniProt O00329).
T2 construct: for the full-length p110-d subunit are generated and fused by overlapping PCR; p85(iSH2) fusion partner (see partner chain) (N); His tag (C); made in house; host or cells: baculovirus; Tn5 (Trichoplusia ni) or TiniPro insect cells
In words: PI3K delta kinase assay (Kinase-Glo luminescence). It is filed as biochemical. Summed up: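 ATP depletion was measured by Kinase-Glo luminescence after a 60-minute room-temperature reaction containing 1 μM ATP, 10 μg/mL PI and 10 nM His-tagged p85(iSH2)-linker-p110δ (BV-1060). Buffer: Tris pH 7.5, 3 mM MgCl2, 50 mM NaCl, 0.05% CHAPS, 1 mM DTT. IC50 values came from four-parameter fits over eight concentrations.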
Background: Kinase-Glo reads ATP consumption through a luciferase reaction.

A further assay deals with T3, mTOR (Homo sapiens, UniProt P42345).
T3 construct: purchased Invitrogen Corporation (Carlsbad/CA, USA) PV4753
In words: Biochemical assay for m-TOR by TR-FRET. The conditions noted are these: 8 μM ATP, 400 nM GFP-4EBP1, 0.5 nM mTOR. Summed up:
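Enzyme 0.5 nM, GFP-4EBP1 400 nM, ATP 8 μM (all final); 50 mM HEPES pH 7.5, 10 mM MnCl2, 1 mM DTT; rt. Detection: Tb-α-p4EBP1 [pT46] 0.5 nM in EDTA, TR-FRET, 15 min. Reference compound on every plate, 16-point duplicate dilutions.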
For orientation: Time-resolved FRET reads energy transfer from a long-lived donor to a nearby acceptor.

Assay [1] has as its system S6 Ribosomal Protein phosphorylation Ser235/236 in TSC1 null mouse embryo fibroblast (MEF) cells. In words: Reverse protein array assay, S6 Ribosomal Protein phosphorylation Ser235/236 in TSC1 null MEF cells. It is filed as cell-based. The conditions noted are these: 1 h, pS6 ribosomal protein Ser235/236, 60 minutes incubation, read-out: p-S6 IC50. The gist of the method: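 TSC1−/− MEFs, seeded and held ≥20 h at 37 °C/5% CO2, were exposed to 8-step serial compound dilutions (0.02% DMSO final; DMSO vehicle control) for 60 min at 37 °C. Cells were then lysed on ice for 10 min and lysates spotted onto reverse protein array chips.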

T2 sequence (O00329 with tags, fused parts or gaps limits assumed): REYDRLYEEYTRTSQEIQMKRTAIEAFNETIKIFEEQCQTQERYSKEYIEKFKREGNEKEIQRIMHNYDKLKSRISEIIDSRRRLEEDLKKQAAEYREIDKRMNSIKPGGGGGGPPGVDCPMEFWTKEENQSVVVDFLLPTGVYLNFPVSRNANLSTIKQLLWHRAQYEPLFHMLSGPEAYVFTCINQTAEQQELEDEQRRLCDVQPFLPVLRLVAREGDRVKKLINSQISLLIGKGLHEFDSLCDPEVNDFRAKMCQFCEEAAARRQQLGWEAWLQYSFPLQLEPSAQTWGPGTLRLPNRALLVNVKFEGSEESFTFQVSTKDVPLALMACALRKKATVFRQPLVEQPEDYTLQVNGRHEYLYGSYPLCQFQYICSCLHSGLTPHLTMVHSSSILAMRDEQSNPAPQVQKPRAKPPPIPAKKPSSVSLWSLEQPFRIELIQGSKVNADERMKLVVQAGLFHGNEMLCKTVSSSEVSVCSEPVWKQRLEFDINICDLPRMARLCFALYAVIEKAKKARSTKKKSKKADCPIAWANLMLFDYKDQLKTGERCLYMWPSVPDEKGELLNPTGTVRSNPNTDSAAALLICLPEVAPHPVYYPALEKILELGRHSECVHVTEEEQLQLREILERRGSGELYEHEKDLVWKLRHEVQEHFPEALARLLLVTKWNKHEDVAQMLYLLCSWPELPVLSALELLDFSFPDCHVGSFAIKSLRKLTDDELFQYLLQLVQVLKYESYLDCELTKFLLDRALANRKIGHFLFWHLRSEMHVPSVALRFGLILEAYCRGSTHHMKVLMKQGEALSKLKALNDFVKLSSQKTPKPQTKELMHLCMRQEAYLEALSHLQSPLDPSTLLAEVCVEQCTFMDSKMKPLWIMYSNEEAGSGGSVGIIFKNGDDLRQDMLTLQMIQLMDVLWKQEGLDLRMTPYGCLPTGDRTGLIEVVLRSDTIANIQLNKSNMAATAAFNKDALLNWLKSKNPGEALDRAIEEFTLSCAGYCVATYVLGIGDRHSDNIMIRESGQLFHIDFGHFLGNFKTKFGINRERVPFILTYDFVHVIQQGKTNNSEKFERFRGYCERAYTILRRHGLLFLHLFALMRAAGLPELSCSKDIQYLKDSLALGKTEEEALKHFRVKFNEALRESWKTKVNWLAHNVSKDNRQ
T3 sequence (P42345 1360-2549 limits assumed): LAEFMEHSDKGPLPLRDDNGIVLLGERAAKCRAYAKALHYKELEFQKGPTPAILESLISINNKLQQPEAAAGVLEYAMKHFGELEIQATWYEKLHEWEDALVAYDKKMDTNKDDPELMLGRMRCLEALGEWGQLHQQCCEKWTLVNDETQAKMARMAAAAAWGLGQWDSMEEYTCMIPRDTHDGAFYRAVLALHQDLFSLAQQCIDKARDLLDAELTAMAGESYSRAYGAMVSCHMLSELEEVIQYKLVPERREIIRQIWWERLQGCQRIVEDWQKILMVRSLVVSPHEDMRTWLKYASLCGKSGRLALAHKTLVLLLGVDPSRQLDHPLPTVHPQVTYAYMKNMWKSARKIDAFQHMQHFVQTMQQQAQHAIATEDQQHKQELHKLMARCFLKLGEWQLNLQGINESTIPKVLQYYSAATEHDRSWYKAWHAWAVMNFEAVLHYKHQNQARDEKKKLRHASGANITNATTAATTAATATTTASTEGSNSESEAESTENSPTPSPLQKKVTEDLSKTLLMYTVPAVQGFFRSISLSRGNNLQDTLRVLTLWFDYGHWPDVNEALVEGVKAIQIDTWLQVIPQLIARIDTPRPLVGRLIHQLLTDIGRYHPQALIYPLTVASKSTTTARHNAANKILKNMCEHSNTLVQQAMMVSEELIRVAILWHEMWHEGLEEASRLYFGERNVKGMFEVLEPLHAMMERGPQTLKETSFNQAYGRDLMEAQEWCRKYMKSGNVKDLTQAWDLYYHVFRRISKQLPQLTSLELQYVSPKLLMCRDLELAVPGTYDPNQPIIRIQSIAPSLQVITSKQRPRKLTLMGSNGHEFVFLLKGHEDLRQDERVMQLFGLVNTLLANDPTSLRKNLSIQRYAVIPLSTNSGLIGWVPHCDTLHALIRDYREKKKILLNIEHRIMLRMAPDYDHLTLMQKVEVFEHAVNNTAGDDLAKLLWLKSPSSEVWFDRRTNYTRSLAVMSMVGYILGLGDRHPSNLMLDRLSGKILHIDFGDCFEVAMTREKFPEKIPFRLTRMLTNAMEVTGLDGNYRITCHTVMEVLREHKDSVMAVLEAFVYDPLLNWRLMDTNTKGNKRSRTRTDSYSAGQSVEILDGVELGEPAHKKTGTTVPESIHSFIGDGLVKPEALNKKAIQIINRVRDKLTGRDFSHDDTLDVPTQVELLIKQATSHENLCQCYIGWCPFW
T1 sequence (P42336 with tags, fused parts or gaps limits assumed): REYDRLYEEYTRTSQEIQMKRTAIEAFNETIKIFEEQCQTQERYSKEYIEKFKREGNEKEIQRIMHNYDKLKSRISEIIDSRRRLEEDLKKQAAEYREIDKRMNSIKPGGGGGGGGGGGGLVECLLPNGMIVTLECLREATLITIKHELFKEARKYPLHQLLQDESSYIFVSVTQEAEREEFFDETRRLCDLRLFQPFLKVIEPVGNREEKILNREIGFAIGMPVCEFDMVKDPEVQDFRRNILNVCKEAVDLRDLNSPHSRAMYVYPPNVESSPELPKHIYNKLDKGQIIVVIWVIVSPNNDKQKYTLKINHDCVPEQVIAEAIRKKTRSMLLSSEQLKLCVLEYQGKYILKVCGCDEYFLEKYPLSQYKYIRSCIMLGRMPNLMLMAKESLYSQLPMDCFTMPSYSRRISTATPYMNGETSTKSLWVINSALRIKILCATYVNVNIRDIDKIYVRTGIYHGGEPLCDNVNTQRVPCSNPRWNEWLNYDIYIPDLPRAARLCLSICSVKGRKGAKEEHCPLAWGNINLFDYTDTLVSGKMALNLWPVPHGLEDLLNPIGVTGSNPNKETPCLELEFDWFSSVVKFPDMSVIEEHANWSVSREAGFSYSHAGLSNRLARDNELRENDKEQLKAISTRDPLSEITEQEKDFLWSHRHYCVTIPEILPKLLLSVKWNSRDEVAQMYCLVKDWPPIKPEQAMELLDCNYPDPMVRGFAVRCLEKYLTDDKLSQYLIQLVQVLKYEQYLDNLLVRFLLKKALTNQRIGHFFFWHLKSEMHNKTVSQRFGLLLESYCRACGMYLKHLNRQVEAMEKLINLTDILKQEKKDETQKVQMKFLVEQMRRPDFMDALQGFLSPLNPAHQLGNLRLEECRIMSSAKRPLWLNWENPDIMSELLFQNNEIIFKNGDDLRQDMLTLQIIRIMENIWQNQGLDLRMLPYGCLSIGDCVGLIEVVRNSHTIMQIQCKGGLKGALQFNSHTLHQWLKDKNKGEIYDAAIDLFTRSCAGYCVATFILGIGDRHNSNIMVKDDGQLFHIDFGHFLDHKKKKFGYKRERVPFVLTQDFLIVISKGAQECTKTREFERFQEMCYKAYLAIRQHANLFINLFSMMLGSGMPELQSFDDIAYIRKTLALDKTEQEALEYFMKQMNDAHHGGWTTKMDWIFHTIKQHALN

The IC50 is the concentration needed to halve the response being measured. As to `COc1ncc(-c2ccc3ncc4c(c3c2)n(-c2cn(C)nc2C)c(=O)n4C)cc1NC(C)=O` [Example 64, N-{5-[1-(1,3-Dimethyl-1H-pyrazol-4-yl)-3-methyl-2-oxo-2,3-dihydro-1H-imidazo[4,5-c]quinolin-8-yl]-2-methoxy-pyridin-3-yl}-acetamide], the IC50 on PI3K alpha stood at 87 nM; on PI3K delta, 51 nM; on mTOR it was 30 nM; in assay [1], 5 nM.
Take `Cc1nn(C)cc1-n1c(=O)n(C)c2cnc3ccc(-c4ccc(-n5cccn5)nc4)cc3c21` [Example 79, 1-(1,3-Dimethyl-1H-pyrazol-4-yl)-3-methyl-8-(6-pyrazol-1-yl-pyridin-3-yl)-1,3-dihydro-imidazo[4,5-c]quinolin-2-one]: the IC50 on PI3K alpha is 48 nM; at PI3K delta, 318 nM; at mTOR, < 3 nM; in assay [1], 5 nM.
Taken in the same sequence, the figures for `Cc1ncc(-c2ccc3ncc4c(c3c2)n(-c2cn(C)nc2C)c(=O)n4C)cc1OC(C)C` [Example 84.1, 1-(1,3-Dimethyl-1H-pyrazol-4-yl)-8-(5-isopropoxy-6-methyl-pyridin-3-yl)-3-methyl-1,3-dihydro-imidazo[4,5-c]quinolin-2-one] were 6 nM, 4 nM, 4 nM and 2 nM.
Consider `CCNc1cc(-c2ccc3ncc4c(c3c2)n(-c2c(C)nn(CC(=O)N(C)C)c2C)c(=O)n4C)cnc1C` [Example 87.5, 2-{4-[8-(5-Ethylamino-6-methyl-pyridin-3-yl)-3-methyl-2-oxo-2,3-dihydro-imidazo[4,5-c]quinolin-1-yl]-3,5-dimethyl-pyrazol-1-yl}-N,N-dimethyl-acetamide], for which the IC50 at PI3K alpha turned out to be 43 nM; at PI3K delta it was 35 nM; at mTOR, 29 nM; in assay [1], 180 nM.
In the case of `CCNc1cc(-c2ccc3ncc4c(c3c2)n(-c2c(C)nn(CCOC)c2C)c(=O)n4C)cnc1OC` [Example 90.2, 8-(5-Ethylamino-6-methoxy-pyridin-3-yl)-1-[1-(2-methoxy-ethyl)-3,5-dimethyl-1H-pyrazol-4-yl]-3-methyl-1,3-dihydro-imidazo[4,5-c]quinolin-2-one], the IC50 at PI3K alpha was 44 nM; at PI3K delta it was 26 nM; at mTOR it was 129 nM; in assay [1], 35 nM.
For the molecule `Cc1nn(C)cc1-n1c(=O)n(C)c2cnc3ccc(-c4cnc5cc[nH]c5c4)cc3c21` [Example 99, 1-(1,3-Dimethyl-1H-pyrazol-4-yl)-3-methyl-8-(1H-pyrrolo[3,2-b]pyridin-6-yl)-1,3-dihydro-imidazo[4,5-c]quinolin-2-one], the IC50 on PI3K alpha was 16 nM; on PI3K delta it was 6 nM; on mTOR it was < 3 nM; in assay [1] it was 4 nM.
On to `CCn1cc(-n2c(=O)n(C)c3cnc4ccc(-c5ccc(NC)nc5)cc4c32)c(C)n1` [Example 118.4, 1-(1-Ethyl-3-methyl-1H-pyrazol-4-yl)-3-methyl-8-(6-methylamino-pyridin-3-yl)-1,3-dihydro-imidazo[4,5-c]quinolin-2-one], for which the IC50 on PI3K alpha amounted to 20 nM; at PI3K delta, 19 nM; at mTOR, 4 nM; in assay [1] it was 2 nM.
Turning to `COc1ncc(-c2ccc3ncc4c(c3c2)n(-c2cn(C)nc2C)c(=O)n4C)cc1C(N)=O` [Example 125.2, 5-[1-(1,3-Dimethyl-1H-pyrazol-4-yl)-3-methyl-2-oxo-2,3-dihydro-1H-imidazo[4,5-c]quinolin-8-yl]-2-methoxy-nicotinamide], the IC50 stood at 50 nM on PI3K alpha, 40 nM on PI3K delta, 10 nM at mTOR and 5 nM in assay [1].
Turning to `COc1ncc(-c2ccc3ncc4c(c3c2)n(-c2cn(C)nc2C)c(=O)n4C)cc1C#N` [Example 132, 5-[1-(1,3-Dimethyl-1H-pyrazol-4-yl)-3-methyl-2-oxo-2,3-dihydro-1H-imidazo[4,5-c]quinolin-8-yl]-2-methoxy-nicotinonitrile], the IC50 at PI3K alpha was found to be 138 nM; on PI3K delta, 58 nM; at mTOR, 934 nM; in assay [1], 3 nM.
